Measurements as given in patent publication US10111890B2, “9-aminomethyl minocycline compounds and uses thereof” (Paratek Pharmaceuticals, Inc., priority 2016, dated 2018).

Tests used:
[1] = human, in vivo
[2] = Phase 3 oral omadacycline vs oral linezolid in ABSSSI: safety (adverse events, TEAEs, vital signs, ECG, laboratory); format: in vivo; conditions: safety population
Text: An Adverse Event (AE) is any untoward, undesired, or unplanned event in the form of signs, symptoms, disease, or laboratory or physiologic observations occurring in a person given a test article or in a clinical study. […] An AE includes, but is not limited to, the following: any clinically significant worsening of a preexisting condition; an AE occurring from overdose of a test article, whether accidental or intentional; overdose is a dose greater than that specified in the protocol; an AE occurring from abuse (e.g., use for nonclinical reasons) of a test article; and an AE that has been associated with the discontinuation of the use of a test article.
The severity (or intensity) of an AE was classified using the following criteria:
Concerning relatedness, causality (i.e., whether there was a reasonable possibility that test article caused the event) for all AEs and SAEs was assessed.
Safety variables include the incidence rate of AEs, change in vital signs, ECG parameters and laboratory test results obtained during the course of the study. For safety analyses, subjects were analyzed according to the treatment actually received.
Summary tables were provided for all treatment-emergent adverse events (TEAEs). A TEAE is defined as an AE with a start date and time on or after the first dose of test article. […] Additional tabulations provide summaries by SOC and PT of subjects experiencing SAEs, severe TEAEs, TEAEs judged to be related to test article, TEAEs leading to discontinuation of test article, and TEAEs of special interest.
The following variables were analyzed descriptively: Vital signs (systolic and diastolic BP, pulse rate, body temperature, respiratory rate), including change from Screening by visit; Clinically notable vital signs (meeting predefined criteria as specified in the SAP) by visit. Subjects with notable vital signs data were listed.
ECG data (RR interval, PR interval, QRS interval, QTc, QTc Bazett's Correction Formula [QTcB], and QTc Fridericia's Correction Formula [QTcF]) was summarized descriptively at each scheduled evaluation, and for the overall worst post-Screening value. Changes from Screening at each visit that a 12-lead ECG was obtained was also provided. An outlier analysis was conducted based on the worst post-Screening value.
The following variables were analyzed descriptively: Laboratory variables by visit; Change from Screening of laboratory variables by visit; and Clinically notable laboratory values (meeting predefined criteria specified in the SAP) by visit.

[3] = tested on: ABSSSI known or suspected to be due to Gram-positive pathogens; test: Phase 3 oral omadacycline vs oral linezolid in ABSSSI: Investigator's Assessment of Clinical Response at PTE; format: in vivo, human; conditions: for Overall Clinical Success at PTE, %: micro-mITT, % of N1
[4] = tested on: ABSSSI; test: Earlier Phase 3 i.v.-to-oral omadacycline vs linezolid study in ABSSSI: clinical success; format: in vivo, human; conditions: i.v. with switch to oral
[5] = Cellulitis/erysipelas, actual type, mITT
[6] = Cellulitis/erysipelas, as randomized, mITT
[7] = Major Abscess, actual type, mITT
[8] = Major Abscess, as randomized, mITT
[9] = Wound Infection, actual type, mITT
[10] = Wound Infection, as randomized, mITT

## CC(=O)NCC1CN(c2ccc(N3CCOCC3)c(F)c2)C(=O)O1 (centres unmarked) [Linezolid, N-[[3-(3-fluoro-4-morpholinophenyl)-2-oxooxazolidin-5-yl]methyl]acetamide, reference compound]
[1]
  discontinuation due to TEAE, % of subjects: 2.2%
  serious TEAEs, % of subjects: 2.5%
  treatment-emergent adverse events (TEAEs), % of subjects: 45.7%
[2]
  Subjects who died: 1 (0.3) n (%)
  Subjects with at Least One Adverse Events (AE): 140 (38.1) n (%)
  Subjects with at Least One Drug-Related Serious TEAE: 1 (0.3) n (%)
  Subjects with at Least One Drug-Related TEAE: 52 (14.2) n (%)
  Subjects with at Least One Serious TEAE: 5 (1.4) n (%)
  Subjects with at Least One Serious TEAE leading to Death: 1 (0.3) n (%)
  Subjects with at Least One Serious TEAEs leading to premature discontinuation of test article: 2 (0.5) n (%)
  Subjects with at Least One Severe TEAE: 7 (1.9) n (%)
  Subjects with at Least One TEAE Leading to Study Drug Discontinuation: 3 (0.8) n (%)
  Subjects with at Least One TEAE leading to dose interruption: 0 n (%)
  Subjects with at Least One TEAE leading to premature discontinuation of study: 1 (0.3) n (%)
  Subjects with at Least One TEAE leading to premature discontinuation of test article: 3 (0.8) n (%)
  TEAE leading to study drug discontinuation: Cellulitis: 0 n (%)
  TEAE leading to study drug discontinuation: Gastrointestinal Disorders (SOC): 0 n (%)
  TEAE leading to study drug discontinuation: Haematemesis: 0 n (%)
  TEAE leading to study drug discontinuation: Infections And Infestations (SOC): 1 (0.3) n (%)
  TEAE leading to study drug discontinuation: Nausea: 0 n (%)
  TEAE leading to study drug discontinuation: Pregnancy: 0 n (%)
  TEAE leading to study drug discontinuation: Pregnancy, Puerperium And Perinatal Conditions (SOC): 0 n (%)
  TEAE leading to study drug discontinuation: Staphylococcal Bacteraemia: 0 n (%)
  TEAE leading to study drug discontinuation: Subcutaneous Abscess: 0 n (%)
  TEAE leading to study drug discontinuation: Vomiting: 0 n (%)
  TEAE leading to study drug discontinuation: Wound Infection: 1 (0.3) n (%)
  TEAE: Alanine Aminotransferase Increased: 11 (3.0) n (%)
  TEAE: Aspartate Aminotransferase Increased: 12 (3.3) n (%)
  TEAE: Cellulitis: 9 (2.5) n (%)
  TEAE: Headache: 8 (2.2) n (%)
  TEAE: Wound Infection: 17 (4.6) n (%)
  Total Number of AEs: 250
  Total Number of TEAEs: 239
[2]; AE overview
  Subjects with at Least One TEAE: 137 (37.3) n (%)
[2]; all severities
  TEAE: Abdominal Pain Upper: 4 (1.1) n (%)
  TEAE: Diarrhea: 10 (2.7) n (%)
  TEAE: Nausea: 28 (7.6) n (%)
  TEAE: Vomiting: 11 (3.0) n (%)
[2]; highest severity Mild
  Subjects with at Least One TEAE, Mild: 85 (23.2) n (%)
  TEAE: Abdominal Pain Upper, Mild: 4 (1.1) n (%)
  TEAE: Abdominal Pain, Mild: 1 (0.3) n (%)
  TEAE: Diarrhea, Mild: 9 (2.5) n (%)
  TEAE: Gastrointestinal Disorders (SOC), Mild: 44 (12.0) n (%)
  TEAE: Nausea, Mild: 24 (6.5) n (%)
  TEAE: Vomiting, Mild: 10 (2.7) n (%)
[2]; highest severity Moderate
  Subjects with at Least One TEAE, Moderate: 45 (12.3) n (%)
  TEAE: Abdominal Pain Upper, Moderate: 0 n (%)
  TEAE: Abdominal Pain, Moderate: 1 (0.3) n (%)
  TEAE: Diarrhea, Moderate: 1 (0.3) n (%)
  TEAE: Gastrointestinal Disorders (SOC), Moderate: 8 (2.2) n (%)
  TEAE: Nausea, Moderate: 4 (1.1) n (%)
  TEAE: Vomiting, Moderate: 1 (0.3) n (%)
[2]; highest severity Severe
  Subjects with at Least One TEAE, Severe: 7 (1.9) n (%)
  TEAE: Abdominal Pain Upper, Severe: 0 n (%)
  TEAE: Abdominal Pain, Severe: 0 n (%)
  TEAE: Diarrhea, Severe: 0 n (%)
  TEAE: Gastrointestinal Disorders (SOC), Severe: 0 n (%)
  TEAE: Nausea, Severe: 0 n (%)
  TEAE: Vomiting, Severe: 0 n (%)
[2]; most frequent (≥2%) TEAEs table
  Subjects with at Least One TEAE: 137 (37.3) n (%)
[3]; Cellulitis/erysipelas, actual type of infection, investigator assessment, mITT
  Overall clinical response at PTE: Clinical Success: 78 (92.9) n (%)
[3]; [5]
  Overall clinical response at PTE: Clinical Failure: 1 (1.2) n (%)
  Overall clinical response at PTE: Clinical Failure or Indeterminate: 6 (7.1) n (%)
  Overall clinical response at PTE: Indeterminate: 5 (6.0) n (%)
[3]; [6]
  Overall clinical response at PTE: Clinical Failure: 1 (1.2) n (%)
  Overall clinical response at PTE: Clinical Failure or Indeterminate: 6 (7.1) n (%)
  Overall clinical response at PTE: Indeterminate: 5 (6.0) n (%)
[3]; Cellulitis/erysipelas, type of infection as randomized, investigator assessment, mITT
  Overall clinical response at PTE: Clinical Success: 78 (92.9) n (%)
[3]; Major Abscess, actual type of infection, investigator assessment, mITT
  Overall clinical response at PTE: Clinical Success: 49 (79.0) n (%)
[3]; [7]
  Overall clinical response at PTE: Clinical Failure: 3 (4.8) n (%)
  Overall clinical response at PTE: Clinical Failure or Indeterminate: 13 (21.0) n (%)
  Overall clinical response at PTE: Indeterminate: 10 (16.1) n (%)
[3]; [8]
  Overall clinical response at PTE: Clinical Failure: 3 (4.8) n (%)
  Overall clinical response at PTE: Clinical Failure or Indeterminate: 13 (21.0) n (%)
  Overall clinical response at PTE: Indeterminate: 10 (16.1) n (%)
[3]; Major Abscess, type of infection as randomized, investigator assessment, mITT
  Overall clinical response at PTE: Clinical Success: 49 (79.0) n (%)
[3]; Wound Infection, actual type of infection, investigator assessment, mITT
  Overall clinical response at PTE: Clinical Success: 164 (76.6) n (%)
[3]; [9]
  Overall clinical response at PTE: Clinical Failure: 17 (7.9) n (%)
  Overall clinical response at PTE: Clinical Failure or Indeterminate: 50 (23.4) n (%)
  Overall clinical response at PTE: Indeterminate: 33 (15.4) n (%)
[3]; [10]
  Overall clinical response at PTE: Clinical Failure: 17 (7.9) n (%)
  Overall clinical response at PTE: Clinical Failure or Indeterminate: 50 (23.4) n (%)
  Overall clinical response at PTE: Indeterminate: 33 (15.4) n (%)
[3]; Wound Infection, type of infection as randomized, investigator assessment, mITT
  Overall clinical response at PTE: Clinical Success: 164 (76.6) n (%)
[3]; baseline pathogen Clostridium perfringens, investigator assessment
  Overall Clinical Success at PTE, %: (77.8) %
[3]; baseline pathogen Enterobacter cloacae, investigator assessment
  Overall Clinical Success at PTE, %: (100.0) %
[3]; baseline pathogen Enterococcus faecalis VRE, investigator assessment
  Overall Clinical Success at PTE, %: (100.0) %
[3]; baseline pathogen Enterococcus faecalis VSE, investigator assessment
  Overall Clinical Success at PTE, %: (70.0) %
[3]; baseline pathogen Enterococcus faecalis, investigator assessment
  Overall Clinical Success at PTE, %: (75.0) %
[3]; baseline pathogen Enterococcus faecium VSE, investigator assessment
  Overall Clinical Success at PTE, %: (100.0) %
[3]; baseline pathogen Enterococcus faecium, investigator assessment
  Overall Clinical Success at PTE, %: (100.0) %
[3]; baseline pathogen Escherichia coli, investigator assessment
  Overall Clinical Success at PTE, %: (100.0) %
[3]; baseline pathogen Finegoldia magna, investigator assessment
  Overall Clinical Success at PTE, %: (0.0) %
[3]; baseline pathogen Klebsiella pneumoniae, investigator assessment
  Overall Clinical Success at PTE, %: (66.7) %
[3]; baseline pathogen MRSA, investigator assessment
  Overall Clinical Success at PTE, %: (79.4) %
[3]; baseline pathogen MSSA, investigator assessment
  Overall Clinical Success at PTE, %: (79.2) %
[3]; baseline pathogen Prevotella denticola, investigator assessment
  Overall Clinical Success at PTE, %: (0.0) %
[3]; baseline pathogen Prevotella melaninogenica, investigator assessment
  Overall Clinical Success at PTE, %: (100.0) %
[3]; baseline pathogen Staphylococcus aureus, investigator assessment
  Overall Clinical Success at PTE, %: (79.8) %
[3]; baseline pathogen Streptococcus agalactiae, investigator assessment
  Overall Clinical Success at PTE, %: (50.0) %
[3]; baseline pathogen Streptococcus anginosus group, investigator assessment
  Overall Clinical Success at PTE, %: (73.3) %
[3]; baseline pathogen Streptococcus anginosus, investigator assessment
  Overall Clinical Success at PTE, %: (80.0) %
[3]; baseline pathogen Streptococcus constellatus, investigator assessment
  Overall Clinical Success at PTE, %: (71.4) %
[3]; baseline pathogen Streptococcus intermedius, investigator assessment
  Overall Clinical Success at PTE, %: (66.7) %
[3]; baseline pathogen Streptococcus pyogenes, investigator assessment
  Overall Clinical Success at PTE, %: (56.3) %
[3]; investigator assessment, CE-PTE
  Overall clinical response at PTE: Clinical Failure: 13 (4.5) n (%)
[3]; investigator assessment, CE-PTE (N = 284 / N = 292)
  Overall clinical response at PTE: Clinical Success: 279 (95.5) n (%)
[3]; investigator assessment, mITT
  Overall clinical response at PTE: Clinical Failure: 21 (5.8) n (%)
  Overall clinical response at PTE: Clinical Failure or Indeterminate: 69 (19.2) n (%)
  Overall clinical response at PTE: Indeterminate: 48 (13.3) n (%)
[3]; investigator assessment, mITT (N = 360 per arm)
  Overall clinical response at PTE: Clinical Success: 291 (80.8) n (%)
[4]; 7-14 days after the last dose
  clinical success based on investigator's assessment of clinical response: 83.6%
[4]; 48-72 hours after the first dose, FDA primary analysis population (N=627)
  clinical success based on a reduction of lesion size: 85.5%
